Test results taken from patent US20090054375A1, “Compositions, Systems, and/or Methods Involving Chlorine Dioxide” (priority 2007, published 2009).

Assay: Enhanced solubility of beta-cyclodextrin in water containing ClO2 (slurry test)
Assay type: physicochemical
Conditions: 100 g slurries of 5% beta-cyclodextrin (w/w) in 8000 ppm ClO2 vs ultrapure water, mixed at 200 rpm for 3 days, dried 2 days

## OC[C@H]1O[C@@H]2O[C@H]3[C@H](O)[C@@H](O)[C@@H](O[C@H]4[C@H](O)[C@@H](O)[C@@H](O[C@H]5[C@H](O)[C@@H](O)[C@@H](O[C@H]6[C@H](O)[C@@H](O)[C@@H](O[C@H]7[C@H](O)[C@@H](O)[C@@H](O[C@H]8[C@H](O)[C@@H](O)[C@@H](O[C@H]1[C@H](O)[C@H]2O)O[C@@H]8CO)O[C@@H]7CO)O[C@@H]6CO)O[C@@H]5CO)O[C@@H]4CO)O[C@@H]3CO [beta-cyclodextrin]
  weight of dried undissolved beta-cyclodextrin from the ClO2 containing slurry, less than the control slurry: 0.32 g
